# Data reported in patent publication US7615361B2, “Toxicity screening methods” (Ceetox, Inc., priority 2006, dated 2009).
# Key:
# [1] = Metabolic activation (disappearance of GSH); conditions: liver microsomes from Phenobarbital/BNF induced rats
# [2] = Metabolic stability (LC/MS, parent remaining); format: in vitro ADME, rat; conditions: 1 μM, 30 min at 37° C.
# Protocol: (§1) Metabolic stability was conducted using pooled microsomes form induced (BNF/PB) male rat (Sprague-Dawley) animals and induced (BNF/PB) male dog (Beagle) animals. The test compounds were incubated for 30 min at 37° C. at concentrations of 1 μM. Subsequent LC/MS analysis measured disappearance of the parent molecule. The data are expressed as percent of parent remaining. Positive controls for highly metabolized compounds were included for comparison.
# (§2) Metabolic Stability and Profiling by mass spectrometry: Metabolic stability was conducted using pooled male dog (beagle) microsomes and male rat (Sprague-Dawley) microsomes from induced (beta-Naphthoflavone/Phenobarbital, BNF/PB) animals. The test compounds were incubated for 30 min at 37° C. at concentrations of 1 and 10 μM. Subsequent analysis by mass spectrometry measured disappearance of the parent molecule. The data are expressed as percent of parent remaining. Positive controls for highly metabolized compounds were included for comparison.
# (§3) Metabolic Stability: The analysis measured disappearance of the parent molecule. The data were expressed as percent of parent remaining. Positive controls for highly metabolized compounds were included for comparison.
# [3] = Metabolic stability (LC/MS, parent remaining); format: in vitro ADME, dog; conditions: 1 μM, 30 min at 37° C.
# Protocol: as §1, §2, §3
# [4] = system: H4IIE cells; assay: Predicted Ctox from Tox-Panel; format: cell-based, rat; conditions: 24 HR, estimated sustained plasma concentration where toxicity would be expected in vivo
# Protocol: Once all data for a given cluster of assays are received, the data are analyzed to obtain a detailed profile of the compound's toxicity. For example, most conveniently, the data are collated over a dose response range on a single graph. In such an embodiment, the measurement evaluated for each parameter (i.e., each indicator of cell health) at any given concentration is plotted as a percentage of a control measurement obtained in the absence of the compound. However, it should be noted that the data need not be plotted on a single graph, so long as all the parameters are analyzed collectively to yield detailed information of the effects of the concentration of the compound on the different parameters to yield an overall toxicity profile. As set forth below, this overall toxicity profile will facilitate a determination of a plasma concentration Ctox that is predicted to be toxic in vivo. Ctox represents an estimate of the sustained plasma concentration in vivo that would result in toxicity, such as hepatotoxicity or hematopoietic toxicity.
# Studies such as these indicate that a preferred concentration for setting Ctox is the highest concentration at which there is no observed effect on any of the indicators being measured in the cluster analysis, especially a 24-hour cluster analysis. […] It will be apparent that 24 hour assays are more time-effective, and consequently, the 24 hour NOEL/Ctox represents a preferred data point to select as Ctox in a CATS assay. It will also be apparent that, with further time studies, it may be possible to select an equally suitable Ctox at other CATS assay time points (e.g., between 24 and 72 hours, or less than 24 hours).
# In certain embodiments, the predicting comprises performing concentration response analyses of measurements from at least three separate assays that are employed in the cluster analysis. For example, in the cell health cluster, such predicting will involve monitoring the concentration response effect of the compound on a first health indicator which monitors cellular replication, a second cell health indicator which monitors mitochondrial function, and a third cell health indicator which monitors membrane integrity. Of course, it is understood that fourth, fifth, sixth or more cell health indicators also may be employed. From these concentration response analyses, the highest concentration of the chemical compound at which a measurable toxic effect of the chemical compound is not observable, i.e. NOEL, is determined and the Ctox is identified as the concentration that correlates to the NOEL. In choosing the concentrations of the compound for analysis, one of skill in the art should devise a dose response regimen which is selected to provide an indication of cell health at concentrations of at least two concentration values higher than the Ctox concentration.
# The Ctox (H4IIE) value was developed using 24 hr in vitro toxicity data and was validated by retrospectively evaluating compounds across different classes of drugs in 14-day rat studies in which compounds were administered on a daily basis and pharmacokinetic data was available. […] Thus, Ctox values are only determined for the 24 hr in vitro results. The 6 hr toxicity analyses are typically not performed but are beneficial for interpretation of results when compound toxicity is high (e.g., Ctox≦20 μM).
# [5] = Intracellular total glutathione (GSH); format: cell-based, rat; conditions: rat, Total GSH TC50
# Protocol: (§4) One test compound (Compound A) was received as dry powder and evaluated for potential cytotoxicity in a battery of in vitro assays. The compound was tested using both rat cardiomyocytes (CM) from rat neonates and a rat hepatoma (H4IIE) cell line. […] The cell supernatant or the cells themselves were harvested for biochemical analysis. General cytotoxicity was evaluated by monitoring membrane integrity, mitochondrial function, cell proliferation, oxidative stress, and apoptosis. In addition, interaction with P-glycoprotein (PgP) on H4IIE cells and solubility of the test compound were also assessed. The means of each exposure group (n=3-7) were calculated for each assay performed.
# (§5) Experimental Protocol: The test compound was provided and stored at 4° C. until needed. Dosing solutions were prepared in complete culture medium. The rat hepatoma (H4IIE) cell line was used as the test system.
# [6] = system: P-glycoprotein (PgP); assay: P-glycoprotein (PgP) binding: MTT with and without cyclosporin A; format: cell-based, rat; conditions: H4IIE 24 HR; for % Control (Compound + CSA) / % Control (Compound): MTT, 50 μM; for % Control (Compound + CSA): with cyclosporin A; for % Control (Compound): without CSA
# Protocol: Several antiviral drugs are substrates for P-glycoprotein transporter (PgP).
# P-glycoprotein (PgP) transport proteins are expressed in the bile canalicular membrane of normal liver. However, in neoplastic cells it is not uncommon to have expression of this transporter system in the plasma membrane. […] The existence of these transporters was evaluated with the Calcein-AM assay and with known substrates of PgP.
# [7] = MemTox membrane leakage (AK / α-GST); format: cell-based, rat; conditions: rat
# Protocol: as §4
# (§6) Membrane Leakage (α-Glutathione S-transferase and/or Adenylate Kinase): The presence of Adenylate Kinase (AK) or α-Glutathione S-transferase (α-GST), both enzyme leakage markers, was measured in the culture medium using an activity assay for Adenylate Kinase and/or an ELISA assay for α-GST. At the end of the exposure period, the medium covering the cells in each well was removed and placed into new 96-well plates with appropriate labeling. […] Luminescence (AK) values were measured with a Packard Fusion or equivalent plate reader, and absorbance (α-GST) values were measured with a Packard SpectraCount™ or equivalent reader at 450 nm and reference absorbance at 650 nm.
# (§7) Membrane Leakage (α-Glutathione S-transferase and/or Adenylate Kinase): Leakage of Adenylate Kinase or α-GST from the cell into the culture medium was determined by collecting the culture medium at the end of the exposure period. Thus, the values measured represent total enzyme leakage lost over the exposure period. The control for 100% dead or maximum enzyme release was based on cells treated with 1 mM digitonin at the time of dosing. Percent dead cells relative to digitonin treated cells was determined and then subtracted from 100% to yield the percent live cells.
# [8] = Intracellular total glutathione (GSH); format: cell-based, rat; conditions: rat
# Protocol: as §4
# [9] = MTT reduction; format: cell-based, rat; conditions: rat
# Protocol: as §4
# (§8) Tetrazolium Dye Reduction: 3-[4,5-dimethylthiazol-2-yl]
# [10] = system: H4IIE cells; assay: Cell number (propidium iodide); format: cell-based, rat
# Protocol: as §4, §5
# Cell Proliferation: Cell proliferation in each well was measured with propidium iodide (PI). This specific nucleic acid binding dye fluoresces when intercalated within the nucleic acids. The 15 nm shift enhances PI fluorescence approximately 20 times while the excitation maxima are shifted 30-40 nm. During method development experiments, it was determined that Triton-X-100 was the best solution to permeabilize the H4IIE cells thereby allowing the PI access to intracellular RNA and DNA. Fluorescence was measured using a Packard Fusion plate reader or equivalent reader at 540 nm excitation and 610 nm emission.
# Cell Proliferation: After incubation, the test compound was removed and Triton X-100 solution containing propidium iodide is added. The plate was incubated and read on a fluorescent plate reader. Data was collected as relative fluorescent units (RFU). The blank was subtracted from the final well RFU. It represents the average of the first and last columns which contain no cells on that particular plate. The controls are untreated cells allowed to grow on the same plate. The compounds are represented by several separate RFU data points for each of the tested concentrations. The percent change relative to controls was calculated by dividing the average RFU by the control cell RFU and multiplying by 100.
# [11] = system: H4IIE cells; assay: MTT reduction; format: cell-based, rat
# Protocol: as §4, §5, §8
# [12] = system: H4IIE cells; assay: MemTox membrane leakage (AK / α-GST); format: cell-based, rat
# Protocol: as §4, §5, §6, §7
# [13] = system: H4IIE cells; assay: Intracellular ATP levels; format: cell-based, rat
# Protocol: as §4, §5
# (§9) Intracellular ATP Levels: Cellular Adenosine triphosphate (ATP) was determined with an assay based on a reaction between ATP+D-luciferin+oxygen catalyzed by luciferase to yield Oxyluciferin+AMP+PPi+CO2+light. The emitted light is proportional to the amount of ATP present. […] In addition, a unique cell lysis reagent inhibits endogenous ATPases and therefore stabilizes cellular ATP by preventing its degradation to ADP. ATP is present in all-living cells and declines rapidly upon cell death. In addition, this assay in combination with the MTT assay provides an indicator of mitochondrial activity and energy status of the cell.
# (§10) Plates were analyzed immediately or stored at −20° C. until needed. On the day of analysis, the plates were thawed and calibration curve prepared with ATP in the same liquid matrix as samples. ATP was quantified by adding ATP substrate solution and then reading luminescence on a Packard Fusion Luminescence or equivalent plate reader.
# (§11) Intracellular ATP Levels: ATP levels in treated cells could be determined by using the regression coefficients obtained from the linear regression analysis of the calibration curve. Thus, values could be expressed as pmoles ATP/million cells. Background corrected luminescence was used to determine percent change relative to controls by dividing treated values by control values and multiplying by 100.
# [14] = Intracellular ATP levels; format: cell-based, rat; conditions: rat
# Protocol: as §4, §9, §10, §11
# [15] = system: H4IIE cells; assay: Intracellular total glutathione (GSH); format: cell-based, rat
# Protocol: as §4, §5
# [16] = system: rat cardiomyocytes; assay: MemTox membrane leakage (AK / α-GST); format: cell-based
# Protocol: as §4, §6, §7
# [17] = system: rat cardiomyocytes; assay: Membrane lipid peroxidation (8-isoprostane ELISA); format: cell-based
# Protocol: (§12) One test compound (Compound A) was received as dry powder and evaluated for potential cytotoxicity in a battery of in vitro assays. The compound was tested using both rat cardiomyocytes (CM) from rat neonates and a rat hepatoma (H4IIE) cell line. […] Camptothecin and rotenone were included as positive control compounds. The cell supernatant or the cells themselves were harvested for biochemical analysis. General cytotoxicity was evaluated by monitoring membrane integrity, mitochondrial function, cell proliferation, oxidative stress, and apoptosis. In addition, interaction with P-glycoprotein (PgP) on H4IIE cells and solubility of the test compound were also assessed. The means of each exposure group (n=3-7) were calculated for each assay performed. Intra assay variation well-to-well was typically less than 10% with plate to plate variation typically less than 20%.
# [18] = system: rat cardiomyocytes; assay: Intracellular total glutathione (GSH); format: cell-based
# Protocol: as §4
# [19] = system: rat cardiomyocytes; assay: MTT reduction; format: cell-based
# Protocol: as §4, §8
# [20] = system: H4IIE cells; assay: Membrane lipid peroxidation (8-isoprostane ELISA); format: cell-based, rat
# Protocol: as §12, §5
# [21] = system: rat cardiomyocytes; assay: Intracellular ATP levels; format: cell-based
# Protocol: as §4, §9, §10, §11
smiles,measurement,setting,value
CC(C)C(=O)Nc1ccc([N+](=O)[O-])c(C(F)(F)F)c1 [flutamide],reduction in GSH (metabolic activation),[1],most pronounced effects
Cc1ncc2n1-c1ccc(Cl)cc1C(c1ccccc1F)=NC2 [MIDAZOLAM],% Parent Remaining Rat Microsomes,[2],0.0%
same,% Parent Remaining Dog Microsomes,[3],0.0%
CC(C)(C)NC(=O)[C@@H]1CN(Cc2cccnc2)CCN1C[C@@H](O)C[C@@H](Cc1ccccc1)C(=O)N[C@H]1c2ccccc2C[C@H]1O [indinavir],Predicted Ctox,[4],90 µM
same,CC50 at 24 h,[5],249 µM
same,% Control (Compound + CSA),[6],91.3%
same,% Control (Compound),[6],106.0%
same,% Difference,"[6]; 1-20% low, 20-50% moderate, 50-100% high PgP interaction",13.9%
same,CC50 at 24 h,[7],> 300 µM
same,CC50 at 24 h,[8],71 µM
same,CC50 at 24 h,[9],> 300 µM
same,Cell Number TC50,"[10]; rat, 24 h",300 µM
same,MTT TC50,"[11]; rat, 24 h",300 µM
same,MemTox TC50,"[12]; rat, 24 h",300 µM
same,ATP TC50,"[13]; rat, 24 h",300 µM
same,CC50 at 24 h,[14],> 300 µM
Cc1cn([C@H]2C[C@H](N=[N+]=[N-])[C@@H](CO)O2)c(=O)[nH]c1=O [AZT],CC50,[15],> 300 µM
same,% Control (Compound + CSA),[6],99.0%
same,% Control (Compound),[6],116.6%
same,CC50,[16],> 300 µM
same,Membrane Lipid Peroxidation,[17],0
same,CC50,[18],> 300 µM
same,CC50,[19],> 300 µM
same,CC50,[10],> 300 µM
same,Membrane Lipid Peroxidation,[20],0
same,CC50,[11],> 300 µM
same,CC50,[12],> 300 µM
same,CC50,[13],> 300 µM
same,CC50,[21],> 300 µM
